Experiments:
[1] = Plasma and brain CX157 concentrations after oral dosing in rats; details: rat; for Kp at 2 h / Kp at 4 h / Kp at 8 h / Kp at 18 h / Kp at 24 h / concentration at 0 h / concentration at 2 h / concentration at 4 h / concentration at 8 h / concentration at 18 h / concentration at 24 h: male, Sprague-Dawley, po
[2] = biological target: T1, MAO-B (Homo sapiens, UniProt P27338)
T1 sequence (P27338 1-520): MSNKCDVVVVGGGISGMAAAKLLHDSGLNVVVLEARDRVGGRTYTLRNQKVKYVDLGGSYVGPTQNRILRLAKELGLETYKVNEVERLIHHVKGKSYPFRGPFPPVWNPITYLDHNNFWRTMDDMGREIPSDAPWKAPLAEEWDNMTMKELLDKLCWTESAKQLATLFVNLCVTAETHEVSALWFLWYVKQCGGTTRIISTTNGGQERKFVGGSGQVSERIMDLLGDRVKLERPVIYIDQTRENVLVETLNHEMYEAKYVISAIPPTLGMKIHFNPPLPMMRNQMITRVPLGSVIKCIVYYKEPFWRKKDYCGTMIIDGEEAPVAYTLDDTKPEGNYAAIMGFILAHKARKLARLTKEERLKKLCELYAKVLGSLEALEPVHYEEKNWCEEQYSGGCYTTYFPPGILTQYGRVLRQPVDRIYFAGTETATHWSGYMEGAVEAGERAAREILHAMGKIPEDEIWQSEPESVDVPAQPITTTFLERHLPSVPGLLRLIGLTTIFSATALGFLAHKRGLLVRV

[3] = biological target: T2, rat brain MAO-B (Rattus norvegicus, UniProt P19643); experiment: In vitro inhibition of rat brain MAO-B; assay type: biochemical; details: 10 μM [14C]-PEA, all concentrations tested
T2 construct: from tissue; host or cells: rat brain
T2 sequence (P19643 1-520): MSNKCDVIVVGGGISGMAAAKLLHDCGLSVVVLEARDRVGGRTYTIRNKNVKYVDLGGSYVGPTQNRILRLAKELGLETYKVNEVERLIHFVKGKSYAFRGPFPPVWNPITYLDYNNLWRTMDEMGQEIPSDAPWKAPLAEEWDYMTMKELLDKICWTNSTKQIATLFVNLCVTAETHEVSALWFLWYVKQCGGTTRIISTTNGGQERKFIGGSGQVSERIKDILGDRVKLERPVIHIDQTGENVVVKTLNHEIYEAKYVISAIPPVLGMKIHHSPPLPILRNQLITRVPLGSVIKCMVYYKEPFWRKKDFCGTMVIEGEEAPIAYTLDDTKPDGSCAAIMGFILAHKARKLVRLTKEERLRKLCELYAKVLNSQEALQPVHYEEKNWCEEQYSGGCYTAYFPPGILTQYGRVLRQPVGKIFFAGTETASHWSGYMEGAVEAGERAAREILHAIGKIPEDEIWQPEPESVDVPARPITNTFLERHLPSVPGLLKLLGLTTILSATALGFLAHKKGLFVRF
Method: Methods: The soluble extract of the mitochondrial enriched fraction (P2 pellet), which was prepared from brain homogenates of male Sprague-Dawley rats, served as the source of MAO-A enzymatic activity. The P2 fraction was prepared and was stored frozen until being thawed for use on the day of assay. Final concentrations of 50 μM [^14C]-serotonin (5-HT) and 10 μM [^14C]-phenylethylamine (PEA) were employed as specific substrates for MAO-A and MAO-B, respectively. Test compound inhibition was based on competition for oxidation of these radio-labeled substrates. MAO-A assay specificity was enhanced by inclusion of 0.1 μM deprenyl to prevent substrate oxidation by MAO-B. Likewise, MAO-B assays included 0.1 μM clorgyline to block MAO-A activity. […] Inhibition of enzymatic activities was expressed as IC50 and as the Ki, which was calculated using the Cheng-Prusoff equation.

[4] = brain and plasma, 5 mg/kg, mean brain/plasma ratio of CX157 concentrations, 5 mg/kg oral
[5] = brain and plasma, 10 mg/kg, mean brain/plasma ratio of CX157 concentrations, 10 mg/kg oral
[6] = brain/plasma, 1 mg/kg, mean brain/plasma ratio of CX157 concentrations, 1 mg/kg oral

Molecule O=S1(=O)c2ccc(F)cc2Oc2cc(OCC(F)(F)F)ccc21 [CX157, 3-fluoro-7(2,2,2-trifluorethoxy)phenoxathiine-10,10-dioxide] has a Kp at 2 h [1, 4] of 2.5, a Kp at 4 h ([1]; brain and plasma, 5 mg/kg, mean brain/plasma ratio of CX157 concentrations, 5 mg/kg oral, 4 h) of 2.2 and a Kp at 8 h [1, 4] of 5. The Kp at 18 h [1, 4] was 3.7, the Kp at 24 h [1, 4] was 7.4 and the Kp at 2 h [1, 5] was 3.1. It also gave a Kp at 4 h ([1]; brain and plasma, 10 mg/kg, mean brain/plasma ratio of CX157 concentrations, 10 mg/kg oral, 4 h) of 1.9, a Kp at 8 h [1, 5] of 2.2 and a Kp at 18 h [1, 5] of 7.2. The Kp at 24 h [1, 5] was 8.5, the concentration at 0 h ([1]; brain, 1 mg/kg) was 0 ng/mL and the concentration at 2 h ([1]; brain, 1 mg/kg) was 103 ng/mL. The concentration at 4 h ([1]; brain, 1 mg/kg) was 71.7 ng/mL, the concentration at 8 h ([1]; brain, 1 mg/kg) was 76.5 ng/mL and the concentration at 18 h ([1]; brain, 1 mg/kg) was 17.3 ng/mL. For the same molecule, the concentration at 24 h ([1]; brain, 1 mg/kg) was 13.2 ng/mL, the concentration at 0 h ([1]; brain, 5 mg/kg) was 0 ng/mL and the concentration at 2 h ([1]; brain, 5 mg/kg) was 447 ng/mL. It also gave a concentration at 4 h ([1]; brain, 5 mg/kg) of 386 ng/mL, a concentration at 8 h ([1]; brain, 5 mg/kg) of 535 ng/mL and a concentration at 18 h ([1]; brain, 5 mg/kg) of 140 ng/mL. For the same molecule, the concentration at 24 h ([1]; brain, 5 mg/kg) was 85.8 ng/mL, the concentration at 0 h ([1]; brain, 10 mg/kg) was 0 ng/mL and the concentration at 2 h ([1]; brain, 10 mg/kg) was 387 ng/mL. It also gave a concentration at 4 h ([1]; brain, 10 mg/kg) of 513 ng/mL, a concentration at 8 h ([1]; brain, 10 mg/kg) of 540 ng/mL and a concentration at 18 h ([1]; brain, 10 mg/kg) of 56.6 ng/mL. The concentration at 24 h ([1]; brain, 10 mg/kg) was 86.6 ng/mL, the Kp at 4 h ([1]; brain/plasma, 1 mg/kg, brain concentration higher than plasma concentration, e.g. 4 hours after a 1 mg/kg oral dose) was no more than 10 and the Kp at 2 h [1, 6] was 7.4. It also gave a Kp at 4 h ([1]; brain/plasma, 1 mg/kg, mean brain/plasma ratio of CX157 concentrations, 1 mg/kg oral, 4 h) of 10.3, a Kp at 8 h [1, 6] of 6.5 and a Kp at 18 h [1, 6] of 5.7. For the same molecule, the Kp at 24 h [1, 6] was 4.8, the concentration at 0 h ([1]; plasma, 1 mg/kg) was 0 ng/mL and the concentration at 2 h ([1]; plasma, 1 mg/kg) was 20 ng/mL. The concentration at 4 h ([1]; plasma, 1 mg/kg) was 9.9 ng/mL, the concentration at 8 h ([1]; plasma, 1 mg/kg) was 13.4 ng/mL and the concentration at 18 h ([1]; plasma, 1 mg/kg) was 4.5 ng/mL. For the same molecule, the concentration at 24 h ([1]; plasma, 1 mg/kg) was 3.2 ng/mL, the concentration at 0 h ([1]; plasma, 5 mg/kg) was 0 ng/mL and the concentration at 2 h ([1]; plasma, 5 mg/kg) was 184 ng/mL. The concentration at 4 h ([1]; plasma, 5 mg/kg) was 214 ng/mL, the concentration at 8 h ([1]; plasma, 5 mg/kg) was 189 ng/mL and the concentration at 18 h ([1]; plasma, 5 mg/kg) was 26.8 ng/mL. It also gave a concentration at 24 h ([1]; plasma, 5 mg/kg) of 14.3 ng/mL, a concentration at 0 h ([1]; plasma, 10 mg/kg) of 0 ng/mL and a concentration at 2 h ([1]; plasma, 10 mg/kg) of 158 ng/mL. It also gave a concentration at 4 h ([1]; plasma, 10 mg/kg) of 412 ng/mL, a concentration at 8 h ([1]; plasma, 10 mg/kg) of 257 ng/mL and a concentration at 18 h ([1]; plasma, 10 mg/kg) of 8.5 ng/mL. The concentration at 24 h ([1]; plasma, 10 mg/kg) was 5.4 ng/mL, the blood-brain-barrier penetration ([1]; oral) was “penetrated the blood-brain-barrier” and the “time of maximum plasma levels” value ([1]; oral 1, 5, 10 mg/kg) was “two to four hours”. For the same molecule, the “pharmacokinetic half-life in brain versus plasma” value ([1]; oral, particularly 10 mg/kg) was “longer pharmacokinetic half-life in the brain than in plasma”, the “selectivity for MAO-A inhibition over MAO-B inhibition” value ([2]; human brain homogenates) was greater than 1000 fold and the MAO-B inhibition ([2]; tested concentration 10 μM) was “no detectable MAO-B inhibition”. The “inhibition of rat brain MAO-B” value [3] was “did not inhibit”.
